The source of these data is patent publication US12398108B2, “Compounds, compositions, and methods for treating diseases” (Drexel University, priority 2017, dated 2025).

The subject of one test is Human Androgen Receptor. Description: Indigo Biosciences Human Androgen Receptor Reporter Assay System. The format is cell-based. The protocol: The compound's activity was also measured for its ability to inhibit androgen receptor reporter activity. The assay that was used was Indigo Biosciences Human Androgen Receptor Reporter Assay System. […] Based upon these activities, the compounds are expected to have anti-tumor effects.

The next test has as its target Sigma1 receptor (Homo sapiens, UniProt Q99720). Description: binding to Sigma1 receptor.
A further test concerns breast cancer. Description: administration to a subject who has breast cancer. The format is in vivo. As to the method:
1-(2,2-Dimethyl-3-(4-(trifluoromethyl)phenoxy)propyl)-3-(pyrimidin-5-yl)guanidine is administered to a subject who has breast cancer. The tumor growth is inhibited and the tumor size is reduced.

A short description of test [1]: administration to a subject in pain. The format is in vivo. As to the method:
1-(2,2-Dimethyl-3-(4-(trifluoromethyl)phenoxy)propyl)-3-(pyrimidin-5-yl)guanidine is administered to a subject in pain. The subject's pain is alleviated.

Sequence of Sigma1 receptor (Q99720 whole entry, species assumed): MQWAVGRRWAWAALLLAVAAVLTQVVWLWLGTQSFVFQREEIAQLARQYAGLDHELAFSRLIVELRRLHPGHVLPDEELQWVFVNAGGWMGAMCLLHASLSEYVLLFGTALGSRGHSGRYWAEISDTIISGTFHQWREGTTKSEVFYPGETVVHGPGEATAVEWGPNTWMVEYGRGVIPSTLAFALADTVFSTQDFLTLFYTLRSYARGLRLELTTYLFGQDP

`CC(C)(CNC(=N)Nc1cncnc1)COc1ccc(C(F)(F)F)cc1` [1-(2,2-Dimethyl-3-(4-(trifluoromethyl)phenoxy)propyl)-3-(pyrimidin-5-yl)guanidine]: the “ability to inhibit androgen receptor reporter activity” value with Human Androgen Receptor is on record as “active”. Also, the “binding to Sigma1 receptor” value at Sigma1 receptor is recorded as “nanomolar range”. In the test with breast cancer, the tumor growth entry is recorded as “inhibited” and the tumor size entry is reported as “reduced”. For the same molecule, in test [1], the “subject's pain” value was “alleviated”.
